Species on record: Rattus norvegicus
Assay type: toxicity, organism-based, Sprague-Dawley
Conditions: in vivo, ip, route intraperitoneal, vehicle 100 % SALINE; for ABSOLUTE EOSINOPHIL / ABSOLUTE LYMPHOCYTE / ABSOLUTE MONOCYTE / ABSOLUTE SEGMENTED NEUTROPHIL / BASOPHIL / EOSINOPHIL / ERYTHROCYTE COUNT / HEMATOCRIT / HEMOGLOBIN / LEUKOCYTE COUNT / LYMPHOCYTE / MEAN CORPUSCULAR HEMOGLOBIN / MEAN CORPUSCULAR HEMOGLOBIN CONCENTRATION / MEAN CORPUSCULAR VOLUME / MONOCYTE / NEUTROPHIL / NUCLEATED RED BLOOD CELLS / PLATELET COUNT: tissue Blood; for ALANINE AMINOTRANSFERASE / ALBUMIN / ALKALINE PHOSPHATASE / ASPARTATE AMINOTRANSFERASE / BLOOD UREA NITROGEN / CARBON DIOXIDE / CHLORIDE / CHOLESTEROL / CREATINE PHOSPHOKINASE / CREATININE / GLUCOSE / LACTATE DEHYDROGENASE / LIPASE / PHOSPHORUS / POTASSIUM / SODIUM / TOTAL BILIRUBIN / TOTAL PROTEIN / URIC ACID: tissue Plasma
[1] = 16 mg/kg, 24 h, dose level Low, time 1 day
[2] = 25 mg/kg, 6 h, dose level M1, time 0.25 day
[3] = 25 mg/kg, 24 h, dose level M1, time 1 day

Description: DrugMatrix - Regimen: Single

C=CCO [ALLYL ALCOHOL]
ABSOLUTE EOSINOPHIL [1]: 29.33 CELLS/uL | ABSOLUTE LYMPHOCYTE [1]: 15204.83 CELLS/uL | ABSOLUTE MONOCYTE [1]: 174.67 CELLS/uL | ABSOLUTE SEGMENTED NEUTROPHIL [1]: 841.17 CELLS/uL | BASOPHIL [1]: 0% | EOSINOPHIL [1]: 0.17% | ERYTHROCYTE COUNT [1]: 5.13 x10E6/uL | HEMATOCRIT [1]: 33.13% | HEMOGLOBIN [1]: 12.85 G/DL | LEUKOCYTE COUNT [1]: 16.25 x10E3/uL | LYMPHOCYTE [1]: 93.83% | MEAN CORPUSCULAR HEMOGLOBIN [1]: 25.02 pg | MEAN CORPUSCULAR HEMOGLOBIN CONCENTRATION [1]: 38.82 G/DL | MEAN CORPUSCULAR VOLUME [1]: 64.5 fL | MONOCYTE [1]: 1% | NEUTROPHIL [1]: 5% | NUCLEATED RED BLOOD CELLS [1]: 0.33 /100WBC | PLATELET COUNT [1]: 1056.83 x10E3/uL | ALANINE AMINOTRANSFERASE [1]: 50.67 u/L | ALBUMIN [1]: 4.33 G/DL | ALKALINE PHOSPHATASE [1]: 273.5 u/L | ASPARTATE AMINOTRANSFERASE [1]: 75.83 u/L | BLOOD UREA NITROGEN [1]: 11.17 mg/dL | CARBON DIOXIDE [1]: 27.5 mmol/L | CHLORIDE [1]: 101.83 MEQ/L | CHOLESTEROL [1]: 67 mg/dL | CREATINE PHOSPHOKINASE [1]: 299.83 u/L | CREATININE [1]: 0.18 mg/dL | GLUCOSE [1]: 166.33 mg/dL | LACTATE DEHYDROGENASE [1]: 243.17 u/L | LIPASE [1]: 9.67 u/L | PHOSPHORUS [1]: 10.5 mg/dL | POTASSIUM [1]: 5.58 MEQ/L | SODIUM [1]: 147.05 MEQ/L | TOTAL BILIRUBIN [1]: 0.15 mg/dL | TOTAL PROTEIN [1]: 5.87 G/DL | URIC ACID [1]: 1.25 mg/dL | ABSOLUTE EOSINOPHIL [2]: 0 CELLS/uL | ABSOLUTE LYMPHOCYTE [2]: 12514.83 CELLS/uL | ABSOLUTE MONOCYTE [2]: 196.67 CELLS/uL | ABSOLUTE SEGMENTED NEUTROPHIL [2]: 2271.83 CELLS/uL | BASOPHIL [2]: 0% | EOSINOPHIL [2]: 0% | ERYTHROCYTE COUNT [2]: 5.42 x10E6/uL | HEMATOCRIT [2]: 35.1% | HEMOGLOBIN [2]: 13.58 G/DL | LEUKOCYTE COUNT [2]: 14.98 x10E3/uL | LYMPHOCYTE [2]: 83.83% | MEAN CORPUSCULAR HEMOGLOBIN [2]: 25.07 pg | MEAN CORPUSCULAR HEMOGLOBIN CONCENTRATION [2]: 38.7 G/DL | MEAN CORPUSCULAR VOLUME [2]: 64.73 fL | MONOCYTE [2]: 1.33% | NEUTROPHIL [2]: 14.83% | NUCLEATED RED BLOOD CELLS [2]: 0 /100WBC | PLATELET COUNT [2]: 1079 x10E3/uL | ALANINE AMINOTRANSFERASE [2]: 87.5 u/L | ALBUMIN [2]: 4.43 G/DL | ALKALINE PHOSPHATASE [2]: 238.5 u/L | ASPARTATE AMINOTRANSFERASE [2]: 133.17 u/L | BLOOD UREA NITROGEN [2]: 10.33 mg/dL | CARBON DIOXIDE [2]: 27.67 mmol/L | CHLORIDE [2]: 101.5 MEQ/L | CHOLESTEROL [2]: 58.83 mg/dL | CREATINE PHOSPHOKINASE [2]: 180 u/L | CREATININE [2]: 0.12 mg/dL | GLUCOSE [2]: 158.17 mg/dL | LACTATE DEHYDROGENASE [2]: 175.17 u/L | LIPASE [2]: 10.67 u/L | PHOSPHORUS [2]: 11.65 mg/dL | POTASSIUM [2]: 5.53 MEQ/L | SODIUM [2]: 144.52 MEQ/L | TOTAL BILIRUBIN [2]: 0.12 mg/dL | TOTAL PROTEIN [2]: 5.95 G/DL | URIC ACID [2]: 1.33 mg/dL | ABSOLUTE EOSINOPHIL [3]: 41.33 CELLS/uL | ABSOLUTE LYMPHOCYTE [3]: 12363.17 CELLS/uL | ABSOLUTE MONOCYTE [3]: 291.83 CELLS/uL | ABSOLUTE SEGMENTED NEUTROPHIL [3]: 987 CELLS/uL | BASOPHIL [3]: 0% | EOSINOPHIL [3]: 0.33% | ERYTHROCYTE COUNT [3]: 5.25 x10E6/uL | HEMATOCRIT [3]: 35.35% | HEMOGLOBIN [3]: 13.55 G/DL | LEUKOCYTE COUNT [3]: 13.68 x10E3/uL | LYMPHOCYTE [3]: 90.33% | MEAN CORPUSCULAR HEMOGLOBIN [3]: 25.85 pg | MEAN CORPUSCULAR HEMOGLOBIN CONCENTRATION [3]: 38.38 G/DL | MEAN CORPUSCULAR VOLUME [3]: 67.32 fL | MONOCYTE [3]: 2.17% | NEUTROPHIL [3]: 7.17% | NUCLEATED RED BLOOD CELLS [3]: 0.33 /100WBC | PLATELET COUNT [3]: 960.33 x10E3/uL | ALANINE AMINOTRANSFERASE [3]: 143 u/L | ALBUMIN [3]: 4.27 G/DL | ALKALINE PHOSPHATASE [3]: 289.67 u/L | ASPARTATE AMINOTRANSFERASE [3]: 211.17 u/L | BLOOD UREA NITROGEN [3]: 12.5 mg/dL | CARBON DIOXIDE [3]: 28.33 mmol/L | CHLORIDE [3]: 100.67 MEQ/L | CHOLESTEROL [3]: 75.17 mg/dL | CREATINE PHOSPHOKINASE [3]: 317.5 u/L | CREATININE [3]: 0.22 mg/dL | GLUCOSE [3]: 148.33 mg/dL | LACTATE DEHYDROGENASE [3]: 194.67 u/L | LIPASE [3]: 9.33 u/L | PHOSPHORUS [3]: 11.4 mg/dL | POTASSIUM [3]: 6.21 MEQ/L | SODIUM [3]: 147.37 MEQ/L | TOTAL BILIRUBIN [3]: 0.17 mg/dL | TOTAL PROTEIN [3]: 5.9 G/DL | URIC ACID [3]: 1.15 mg/dL
